The text below walks through data of patent US20240294522A1 (Lead Discovery Center GmbH, priority 2021, published 2024).

Where only a bound is given, the exact number is not on record here.

The target of one assay is T1, GRK2 (Homo sapiens, UniProt P25098).
T1 construct: purchased Thermo Scientific
T1 sequence (P25098 1-689): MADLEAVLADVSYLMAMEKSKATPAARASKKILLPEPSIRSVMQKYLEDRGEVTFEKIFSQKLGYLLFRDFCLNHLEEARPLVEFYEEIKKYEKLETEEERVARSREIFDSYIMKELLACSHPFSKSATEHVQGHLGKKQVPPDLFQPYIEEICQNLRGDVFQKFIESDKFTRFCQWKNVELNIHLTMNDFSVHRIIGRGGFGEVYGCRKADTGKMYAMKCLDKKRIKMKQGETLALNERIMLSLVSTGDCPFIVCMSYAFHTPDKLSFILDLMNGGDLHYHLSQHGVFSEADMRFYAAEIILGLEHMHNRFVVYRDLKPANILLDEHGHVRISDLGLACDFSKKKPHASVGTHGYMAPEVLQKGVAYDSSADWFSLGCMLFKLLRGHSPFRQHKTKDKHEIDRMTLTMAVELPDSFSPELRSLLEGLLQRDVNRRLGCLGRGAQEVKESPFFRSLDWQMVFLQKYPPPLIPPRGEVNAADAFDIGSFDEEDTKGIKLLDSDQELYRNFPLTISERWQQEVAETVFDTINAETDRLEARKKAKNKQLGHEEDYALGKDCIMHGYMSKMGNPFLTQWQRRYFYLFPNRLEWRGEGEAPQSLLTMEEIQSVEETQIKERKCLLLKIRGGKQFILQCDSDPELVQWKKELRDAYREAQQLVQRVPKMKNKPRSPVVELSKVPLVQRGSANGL
Kind of assay: Lance Kinase Activity Assay, GRK2. The following applies: biochemical Lance kinase activity assay; class symbols A-F; read-out: GRK2 LANCE Assay (IC-50). In short, it runs like this: (§1)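 IC50s from sigmoidal dose-response over 0.0025-10 μM compound, with phosphorylated ULight substrate detected by Eu anti-phospho antibody FRET after EDTA quench.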
(In TR-FRET formats the signal depends on donor and acceptor labels being close together.)

Another assay addresses T2, GRK5 (Homo sapiens, UniProt P34947).
T2 construct: purchased Thermo Scientific
Nature of the assay: Lance Kinase Activity Assay, GRK5. Particulars: biochemical Lance kinase activity assay; class symbols A-F; read-out: GRK5 LANCE Assay (IC-50). In short, it runs like this: as §1

T2 sequence (P34947 whole entry): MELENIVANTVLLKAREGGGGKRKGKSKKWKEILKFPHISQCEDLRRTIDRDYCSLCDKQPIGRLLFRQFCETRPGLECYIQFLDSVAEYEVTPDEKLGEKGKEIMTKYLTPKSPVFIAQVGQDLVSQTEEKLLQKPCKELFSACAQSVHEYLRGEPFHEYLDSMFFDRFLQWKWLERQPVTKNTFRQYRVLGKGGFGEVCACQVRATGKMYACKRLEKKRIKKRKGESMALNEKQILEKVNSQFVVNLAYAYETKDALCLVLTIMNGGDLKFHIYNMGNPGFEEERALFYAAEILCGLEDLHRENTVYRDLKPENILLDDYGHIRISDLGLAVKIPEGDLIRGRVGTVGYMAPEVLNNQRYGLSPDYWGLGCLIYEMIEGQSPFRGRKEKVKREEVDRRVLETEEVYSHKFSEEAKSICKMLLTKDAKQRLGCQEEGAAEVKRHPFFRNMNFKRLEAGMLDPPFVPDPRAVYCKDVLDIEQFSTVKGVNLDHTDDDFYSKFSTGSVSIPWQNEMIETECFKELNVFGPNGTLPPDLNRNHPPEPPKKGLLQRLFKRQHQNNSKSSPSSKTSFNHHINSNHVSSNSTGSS

As to `COc1ccc([C@@H](C)NC(=O)/C=C/c2c[nH]c3nccc(-c4ccc(F)cc4OC)c23)cc1OC` [Example 229, (R,E)-N-(1-(3,4-dimethoxyphenyl)ethyl)-3-(4-(4-fluoro-2-methoxyphenyl)-1H-pyrrolo[2,3-b]pyridin-3-yl)acrylamide], the IC50 at GRK2 is > 10000 nM; on GRK5, 1000 to 10000 nM.
For `COc1ccc([C@@H](C)NC(=O)/C(C#N)=C/c2c[nH]c3ncc(-c4ccc(C(F)(F)F)cc4)cc23)cc1OC` [Example 119], the IC50 was > 10000 nM at GRK2 and 1000 to 10000 nM on GRK5.
The matching figures for `COc1ccc([C@@H](C)NC(=O)/C(C#N)=C/c2c[nH]c3ncc(-c4ccccc4OC)cc23)cc1OC` [Example 124]: > 10000 nM and 100 to 500 nM.
The matching figures for `N#C/C(=C\c1c[nH]c2ncccc12)C(=O)NCc1cccc(C#N)c1` [Example 31, (E)-2-cyano-N-(3-cyanobenzyl)-3-(1H-pyrrolo[2,3-b]pyridin-3-yl)acrylamide]: 1000 to 10000 nM and 500 to 1000 nM.
In the case of `COc1ccc([C@@H](C)NC(=O)/C=C/c2c[nH]c3ncc(-c4cccc(S(=O)(=O)C(F)(F)F)c4)cc23)cc1OC` [Example 264, (R,E)-N-(1-(3,4-dimethoxyphenyl)ethyl)-3-(5-(3-((trifluoromethyl)sulfonyl)phenyl)-1H-pyrrolo[2,3-b]pyridin-3-yl)acrylamide], the IC50 on GRK2 was > 10000 nM; on GRK5 it was ≤ 50 nM.
The matching figures for `COc1ccc([C@@H](C)NC(=O)/C(C#N)=C/c2c[nH]c3ncc(-c4ccccc4CN(C)C)cc23)cc1OC` [Example 136]: > 10000 nM and 100 to 500 nM.
The corresponding values for `COc1ccc([C@@H](C)NC(=O)/C(C#N)=C/c2c[nH]c3ncc(-c4ccc(N(C)C)nc4)cc23)cc1OC` [Example 147, (R,E)-2-cyano-N-(1-(3,4-dimethoxyphenyl)ethyl)-3-(5-(6-(dimethylamino)pyridin-3-yl)-1H-pyrrolo[2,3-b]pyridin-3-yl)acrylamide] are 1000 to 10000 nM and ≤ 50 nM.
The corresponding values for `COc1ccc([C@@H](C)NC(=O)/C(C#N)=C/c2c[nH]c3ncc(C(=O)N4CCOCC4)cc23)cc1OC` [Example 82] are > 10000 nM and 100 to 500 nM.
Turning to `COc1ccc([C@@H](C)NC(=O)/C(C#N)=C/c2c[nH]c3ncc(C4=CCCC4)cc23)cc1OC` [Example 158, (R,E)-2-cyano-3-(5-(cyclopent-1-en-1-yl)-1H-pyrrolo[2,3-b]pyridin-3-yl)-N-(1-(3,4-dimethoxyphenyl)ethyl)acrylamide], the IC50 was > 10000 nM at GRK2 and ≤ 50 nM on GRK5.
For `COc1ccc([C@@H](C)NC(=O)/C=C/c2c[nH]c3ncc(-c4cccc([S+]([O-])C(F)(F)F)c4)cc23)cc1OC` (stereo partly drawn) [Example 263, (E)-N-((R)-1-(3,4-dimethoxyphenyl)ethyl)-3-(5-(3-((trifluoromethyl)sulfinyl)phenyl)-1H-pyrrolo[2,3-b]pyridin-3-yl)acrylamide], the IC50 on GRK2 was > 10000 nM; on GRK5 it was ≤ 50 nM.
As for `CS(=O)(=O)Nc1cccc(CNC(=O)/C(C#N)=C/c2c[nH]c3ncccc23)c1` [Example 29, (E)-2-cyano-N-(3-(methylsulfonamido)benzyl)-3-(1H-pyrrolo[2,3-b]pyridin-3-yl)acrylamide], the IC50 on GRK2 lay within 100 to 500 nM; at GRK5, 500 to 1000 nM.
The corresponding values for `COc1ccc([C@@H](C)NC(=O)/C(C#N)=C/c2c[nH]c3ncc(-c4cccc(C(=O)N5CCOCC5)c4)cc23)cc1OC` [Example 127, (R,E)-2-cyano-N-(1-(3,4-dimethoxyphenyl)ethyl)-3-(5-(3-(morpholine-4-carbonyl)phenyl)-1H-pyrrolo[2,3-b]pyridin-3-yl)acrylamide] are > 10000 nM and ≤ 50 nM.
As for `C[C@@H](NC(=O)/C(C#N)=C/c1c[nH]c2ncccc12)c1ccc(F)cc1` [Example 69, (R,E)-2-cyano-N-(1-(4-fluorophenyl)ethyl)-3-(1H-pyrrolo[2,3-b]pyridin-3-yl)acrylamide], the IC50 on GRK2 is 50 to 100 nM; at GRK5 it was ≤ 50 nM.
As for `COc1ccc([C@@H](C)NC(=O)/C(C#N)=C/c2c[nH]c3ncc(-c4cccc(S(=O)(=O)N(C)C)c4)cc23)cc1OC` [Example 149], the values for the IC50 on GRK2 and on GRK5 were 1000 to 10000 nM and ≤ 50 nM, respectively.
The corresponding values for `COc1ccc([C@@H](C)NC(=O)/C=C/c2c[nH]c3nccc(-c4cnn5ccccc45)c23)cc1OC` [Example 242, (R,E)-N-(1-(3,4-dimethoxyphenyl)ethyl)-3-(4-(pyrazolo[1,5-a]pyridin-3-yl)-1H-pyrrolo[2,3-b]pyridin-3-yl)acrylamide] are > 10000 nM and 100 to 500 nM.
The matching figures for `COc1ccc([C@@H](C)NC(=O)/C=C/c2c[nH]c3ncc(Br)cc23)cc1OC` [Example 11, (R,E)-3-(5-bromo-1H-pyrrolo[2,3-b]pyridin-3-yl)-N-(1-(3,4-dimethoxyphenyl)ethyl)acrylamide]: 1000 to 10000 nM and ≤ 50 nM.
The matching figures for `COc1ccc([C@@H](C)NC(=O)/C(C#N)=C/c2c[nH]c3ncc(OC(C)C)cc23)cc1OC` [Example 102, (R,E)-2-cyano-N-(1-(3,4-dimethoxyphenyl)ethyl)-3-(5-isopropoxy-1H-pyrrolo[2,3-b]pyridin-3-yl)acrylamide]: > 10000 nM and ≤ 50 nM.
`COc1cccc(-c2cnc3[nH]cc(/C=C(\C#N)C(=O)N[C@H](C)c4ccc(OC)c(OC)c4)c3c2)c1` [Example 137, (R,E)-2-cyano-N-(1-(3,4-dimethoxyphenyl)ethyl)-3-(5-(3-methoxyphenyl)-1H-pyrrolo[2,3-b]pyridin-3-yl)acrylamide]: the results for the IC50 at GRK2 and at GRK5 were > 10000 nM and ≤ 50 nM, respectively.
The corresponding values for `COc1ccc([C@@H](C)NC(=O)/C(C#N)=C/c2c[nH]c3ncc(-c4ccncc4)cc23)cc1OC` [Example 143] are 1000 to 10000 nM and ≤ 50 nM.
The corresponding values for `C[C@@H](NC(=O)/C(C#N)=C/c1c[nH]c2ncc(-c3cnn(C)c3)cc12)c1cccc(Cl)c1` [Example 96, (R,E)-N-(1-(3-chlorophenyl)ethyl)-2-cyano-3-(5-(1-methyl-1H-pyrazol-4-yl)-1H-pyrrolo[2,3-b]pyridin-3-yl)acrylamide] are 100 to 500 nM and ≤ 50 nM.
The matching figures for `COc1ccc([C@@H](C)NC(=O)/C=C/c2c[nH]c3ncc(-c4cccc(N(C)C)c4)cc23)cc1OC` [Example 195, (R,E)-N-(1-(3,4-dimethoxyphenyl)ethyl)-3-(5-(3-(dimethylamino)phenyl)-1H-pyrrolo[2,3-b]pyridin-3-yl)acrylamide]: > 10000 nM and ≤ 50 nM.
As for `C[C@@H](NC(=O)/C(C#N)=C/c1c[nH]c2ncc(-c3cccc(N4CCN(C)CC4)c3)cc12)c1ccc(F)cc1` [Example 181, (R,E)-2-cyano-N-(1-(4-fluorophenyl)ethyl)-3-(5-(3-(4-methylpiperazin-1-yl)phenyl)-1H-pyrrolo[2,3-b]pyridin-3-yl)acrylamide], the IC50 was 100 to 500 nM on GRK2 and ≤ 50 nM at GRK5.
The corresponding values for `COc1ccc([C@@H](C)NC(=O)/C(C#N)=C/c2c[nH]c3ncccc23)cc1` [Example 19, (R,E)-2-cyano-N-(1-(4-methoxyphenyl)ethyl)-3-(1H-pyrrolo[2,3-b]pyridin-3-yl)acrylamide] are 1000 to 10000 nM and 100 to 500 nM.
